The values below come from patent publication US8115031B2, “Anti-inflammatory quinic acid derivatives for oral administration” (priority 2007, dated 2012).

Data set [1] can be described thus: levels of compound after oral (PO) or intravenous (IV) administration. The class given is in vivo. Conditions: PO vs IV, FIG. 12. An excerpt: FIG. 12 is a graph illustrating the levels of analog KZ-41 when provided orally (PO) or by intravenous administration (IV).
Quinic acids are, however, catabolized by enzymes produced by gut bacteria. In rats, less than 10% of an orally-administered dose of quinic acid is recovered. The inventors therefore set out to produce quinic acid derivatives that retain or improve the beneficial effects of quinic acid, while being effective for oral administration. […] The compounds they have synthesized are not catabolized by bacterial enzymes, but are water-soluble, stable at room temperature, and effective for producing anti-inflammatory effects. […] These properties make the compounds attractive options for therapeutic use as anti-inflammatory agents.

The test system of data set [2] is Gluconobacter oxydans membrane fraction (quinate dehydrogenase). The data set is described as follows: degradation by bacterial enzymes (Gluconobacter oxydans membrane fraction). It counts as in vitro ADME. The protocol:
FIG. 11 is a graph illustrating the results of an assay to compare stability of analog KZ-41 with that of quinic acid (QA) to degradation by bacterial enzymes. Percentage of drug remaining is shown on the Y-axis and the time exposed to the enzymes is shown on the X-axis. Results for quinic acid are indicated by the diamonds (♦) and results for KZ-41 are indicated by the squares (▪).
Experiments involving Gluconobacter oxydans were performed as described by Adachi et al. (Adachi, O., et al., (2003) Biosci. Biotechnol. Biochem. 67: 2124-2131). […]
Samples were evaporated to dryness at 30° C. and reconstituted with […] of 1:1 (v/v) mixture of 0.5% ammonia in water and acetonitrile. […] The spray needle voltage was set at 5,000 V, with the turbo gas temperature set at 400° C., and the declustering potential set at 60 V. For this study, samples were analyzed using a Q1 scan for product ion identification, a product ion scan for characterization of metabolites or enzymatic products and by using multiple-reaction monitoring (MRM) for quantitation of QA. Quantitation was performed using one set of MRM transitions: parent QA ions (MH^−/191)® selective daughter ions m/z 127. […] The peak areas, peak ratios, linear regression, assayed concentrations, and other quantitative analysis calculations were conducted Sciex Analyst 1.4 software. […]

Data set [3] has the same test system. Conditions: three hours; previous results (Adachi et al. 2003); cited from earlier work.
The conditions of data set [4]: rats, oral; cited from earlier work.
In data set [5] the test system is leukocyte populations. Conditions: doxorubicin-induced leukopenia, rat; cited from earlier work.

Read-outs that look alike come from different tables or passages of the source.

In the case of `CCCNC(=O)C1(O)CC(O)C(O)C(O)C1` (stereo not drawn) [KZ-41, 1,3,4,5-tetrahydroxy-cyclohexane-carboxylic acid propylamide], the “levels of compound, oral compared with intravenous (IV) administration” value in data set [1] is on record as “available for absorption into the circulation”. For the same molecule, the “degradation by bacterial enzymes” value in data set [2] (enzymes produced by gut bacteria) is reported as “not degraded”.
With `O=C(O)[C@]1(O)C[C@@H](O)[C@@H](O)[C@H](O)C1` [quinic acid], the “depletion of QA by G. oxydans membrane fraction” value in data set [3] is “complete depletion”. In data set [4], the orally-administered dose recovered entry is “less than 10%”. Moreover, the “degradation by bacterial enzymes” value in data set [2] was “degraded by enzymes produced by bacteria in the intestines”.

B1: Neupogen: a granulocyte colony stimulator commonly used to treat chemotherapy-induced leukopenia (protein, chains of the INN, looked up)
chain: MTPLGPASSLPQSFLLKCLEQVRKIQGDGAALQEKLCATYKLCHPEELVLLGHSLGIPWAPLSSCPSQALQLAGCLSQLHSGLFLYQGLLQALEGISPELGPTLDTLQLDVADFATTIWQQMEELGMAPALQPTQGAMPAFASAFQRRAGGVLVASHLQSFLEVSYRVLRHLAQP
Consider B1, for which, in data set [5], the “effect on leukocyte populations” value was “increased only the neutrophil fraction”.
